The test system of the assay is panel of GPCRs. The assay is described as follows: GPCR selectivity panel. In kind it is cell-based. On the procedure: A homogeneous Time-Resolved Fluorescence (HTRF) assay (Perkin Elmer, Dynamic2 kit #) was used to assess receptor basal and inverse agonist activity at human GPR61, GPR62, and GPR101. For routine inverse agonist screening frozen CHO TREx human GPR61, GPR62 and GPR101 cells were used. Cells were thawed, resuspended in complete assay media (DMEM F-12, 10% HI FBS, 100 μg/mL Normocin, 700 μg/mL Hygromycin B and 15 μg/mL Blasticidin) containing 1ug/ml doxycycline, plated in white 384 well plates (Corning, 3570) at a density of 750 cells/well (25 μl/ well) and cultured at 37 °C in an incubator overnight. For studies assessing basal and inverse agonist activity at human GPR61 mutants, CHO-K1 cells were transiently transfected using Fugene6, plated in white 384 well plates (7500 cells/well) and grown overnight at 37 °C, as described for receptor expression studies. […] Data were analyzed using the ratio of fluorescence intensity at 620 and 665 nm for each well, extrapolated from the cAMP standard curve to express data as nM cAMP for each well. […]
7 recepto r activities wer e measured using FL IPR® Calcium Assays. […]
11 measured using a cal cium specific dye. […]
18 change in fluorescence from baseline over a 60 second period (Excitation 470- 495 nm; Emission […]
20 Tetra® instrument to evaluate antagonist activity, with the change in fluorescence from baseline
21 being measured over a 60 second period. […]

As usually defined, the IC50 is the concentration needed to halve the response being measured. Consider `CCOc1cc(C)nc(N(CCOC)S(=O)(=O)c2ccc(NCc3c(F)cncc3F)nc2OC)n1` [Compound 1], for which, under “panel of GPCRs, read-out: off-target IC50 values”, the IC50 is above 10 µM. In addition, under “panel of common off-target GPCRs and related receptors GPR62 and GPR101”, the “selectivity for GPR61” value was “selective”.

For the origin of these results see article PMC10517971, “An inverse agonist of orphan receptor GPR61 acts by a G protein-competitive allosteric mechanism” (Nature Communications, 2023).
